The test concerns the target T1, papain (Carica papaya, UniProt P00784).
T1 sequence (P00784 134-345): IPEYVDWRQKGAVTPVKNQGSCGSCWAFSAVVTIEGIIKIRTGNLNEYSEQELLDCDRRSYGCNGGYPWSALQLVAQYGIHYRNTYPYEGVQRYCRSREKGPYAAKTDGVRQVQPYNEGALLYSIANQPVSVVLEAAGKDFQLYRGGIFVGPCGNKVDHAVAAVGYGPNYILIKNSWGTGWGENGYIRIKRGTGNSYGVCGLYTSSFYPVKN
As to the kind of experiment: chromogenic protease assay (BAPNA, […] nm) after […] min preincubation of DTT-reduced papain with compound. The class given is biochemical.

Read-outs that look alike come from different tables or passages of the source.

These results are taken from PMC6054074, “The medicinal thiosulfinates from garlic and Petiveria are not radical-trapping antioxidants in liposomes and cells, but lipophilic analogs are” (Chemical Science, 2015).

As usually defined, the IC50 is the concentration that inhibits the measured activity by half. `C=CCS[S+]([O-])CC=C` (stereo not drawn) [compound 1, allicin]: the IC50 amounted to 1200 ± 200 nM.
Turning to `[O-][S+](Cc1ccccc1)SCc1ccccc1` (stereo not drawn) [compound 2, petivericin], the IC50 (read-out: IC50) was 1100 ± 100 nM.
On the same count and under the same terms, in the case of `CCCCCCc1ccc(CS[S+]([O-])Cc2ccc(CCCCCC)cc2)cc1` (stereo not drawn) [compound 4, hexylated petivericin] it was 1000 ± 100 nM.
